US4489091A, “Antilipemic and anti-inflammatory compositions containing sulfonate derivatives” (Taiho Pharmaceutical Company Limited, priority 1980, dated 1984)
Like-named read-outs stand apart in the source and are kept apart here.

Columns and labels:
Acute toxicity = settings: rat, in vivo
Description: Six-week-old male Wistar rats weighing 180 to 200 g are used, 5 rats in each group. Each compound of the invention is suspended in a 30% aqueous solution of polyethylene glycol 6000 and orally given to the rat at the dosage shown in Table 2. The animals are checked for poisoning, body weight and survival to determine the LD50 value.

cholesterol = assay: Antilipemic effect: percent total cholesterol inhibition in plasma of rats given an olive oil-cholesterol mixture; format: in vivo, male Wistar rats; settings: oral 100 mg/kg, plasma 8 hours after dosing, Wistar rat; read-out: Anti-lipemic effect, CS (percent cholesterol inhibition)
Procedure: (§1) The above compounds of this invention are tested by the following methods for antilipemic effect and acute toxicity. In the column of antilipemic effect in the table, the asterisked values indicate the effect achieved by orally giving 200 mg/kg of the compounds concerned, and the unmarked values, the effect attained by orally giving 100 mg/kg. In the same column, "TG" stands for percent triglycerides inhibition and "CS" percent cholesterol inhibition.
(§2) Seven-week-old male Wistar rats weighing 200 to 220 g are used, 5 rats in each group.
(§3) Each compound of the invention (100 mg or 200 mg) is dissolved in 10 ml of an olive oil-cholesterol mixture (containing 15% of cholesterol). The mixture containing the compound is orally given to the rat with a probe at a dose of 10 ml/kg. Two or 8 hours thereafter, 6 ml of whole blood is withdrawn from the descending aorta of the rat under ether anesthesia with a syringe containing heparin. The blood is centrifuged at 5° C. and 3000 r.p.m. to obtain the plasma. The plasma collected after the lapse of 2 hours is used for determining the triglycerides content, and the plasma obtained 8 hours later for determining the total cholesterol content, using a triglycerides measuring kit (trade mark "Triglycerides-B Test Wako," product of Wako Junyaku Co., Ltd., Japan) and a total cholesterol measuring kit (trade mark "Cholesterol Test Wako," product of the same), respectively. The olive oil-cholesterol mixture containing no compound is similarly given to a control group, while no treatment is conducted for a normal group. The triglycerides and total cholesterol contents in the plasma are also determined for these groups in the same manner as is the case with the test groups.
(§4) The present hyperlipidemia inhibition achieved by the present compound is given by [formula] in which A is the triglycerides (cholesterol) content of the control group, B is the triglycerides (cholesterol) content of the normal group, and C is the triglycerides (cholesterol) content of the group to which the present compound is given.

triglycerides = assay: Antilipemic effect: percent triglycerides inhibition in plasma of rats given an olive oil-cholesterol mixture; format: in vivo, male Wistar rats; settings: for inhibition in vivo at 100 mg/kg: oral 100 mg/kg, read-out: Anti-lipemic effect, TG (percent triglycerides inhibition); for inhibition in vivo at 100 mg/kg / inhibition in vivo at 200 mg/kg: plasma 2 hours after dosing, Wistar rat; for inhibition in vivo at 200 mg/kg: oral 200 mg/kg (asterisked values), read-out: Anti-lipemic effect, TG (percent triglycerides inhibition), asterisked; for TG (percent triglycerides inhibition), Table 3: dose not given
Procedure: as §1, §2, §3, §4

esterase = assay: Esterase inhibiting activity; format: biochemical; settings: rat liver microsome esterase, methyl butyrate substrate, pH 8.0, 37° C., 60 minutes; read-out: IC50 for esterases
Procedure: A 10 micromole quantity of methyl butyrate in a 50% ethanol solution is added as a substrate to a specified amount of buffer solution containing 0.1 mole of trishydrochloric acid (pH 8.0). To the mixture is further added a 50% ethanol solution of the compound of the invention, immediately followed by addition of an esterase solution prepared from a purified microsome fraction of the liver of a rat (adjusted to hydrolyze 9 micromoles of methyl butyrate at 37° C. in one hour) as an enzyme solution. The mixture is reacted at 37° C. for 60 minutes.
After the reaction, alkaline hydroxylamine is added to the mixture to form a hydroxamic acid derivative of methyl butyrate, and a ferric salt is added to the derivative. The resulting red color is colorimetrically determined (at a wavelength of 540 nm) to determine the amount of remaining methyl butyrate. The esterase inhibiting ratios of the present compound at least at three concentrations are plotted as ordinate, and the logarithms of the concentrations as abscissa to obtain a line, which gives the 50% inhibition concentration (IC50).

chymotripsin = chymotripsin (Bos taurus, UniProt P00766); assay: Chymotripsin inhibiting activity; format: biochemical; settings: 0.5 h; compound 1×10^-4 mole, ATEE substrate, pH 8.0, 37° C.; read-out: Percent chymotripsin inhibition
Procedure: Chymotripsin (0.1 unit) serving as an enzyme solution is added to a specified quantity of buffer solution containing 0.1 mole of trishydrochloric acid (pH 8.0). To the mixture is further added a 50% ethanol solution of the compound of the invention so that the resulting mixture contains the compound in a concentration of 1×10^-4 mole. The mixture is reacted at 37° C. for 20 minutes.
On completion of the reaction, 10 micromoles of N-acetyl-L-thyrosine ethyl ester (ATEE) serving as a substrate is added to the mixture, and the resulting mixture is reacted at 37° C. for 30 minutes.
After the completion of the reaction, the amount of remaining ATEE is determined by the same hydroxamic acid method as above. The percent chymotripsin inhibition is given by [formula] wherein A is the amount of hydrolyzed esters in the reaction system not containing the compound of the invention, and B is the amount of hydrolyzed esters in the reaction system containing the present compound.

Row | Structure (SMILES) | inhibition in vivo at 100 mg/kg (cholesterol) | inhibition in vivo at 100 mg/kg (triglycerides) | IC50 (esterase) | inhibition at 100 µM (chymotripsin) | LD50 (Acute toxicity; po) | also measured
1 | CCCC(=O)COS(=O)(=O)CC [Compound 1, 2-oxopentylethane sulfonate] | 89% | 92% | 12000 nM |  |  | LD50 (Acute toxicity; oral, six-week-old male Wistar rats, suspended in 30% aqueous polyethylene glycol 6000, read-out: LD50): > 1000 mg/kg
2 | Cc1ccc(S(=O)(=O)OCC(=O)CCCCCCC(C)C)cc1 [Compound 27] |  |  | 670 nM | 17% | > 3000 mg/kg | inhibition in vivo at 200 mg/kg (triglycerides): 59%
3 | C=CCCCCCCCCC(=O)COS(=O)(=O)c1ccc(C)cc1 [Compound 28] |  |  | 230 nM | 15% | > 3000 mg/kg | inhibition in vivo at 200 mg/kg (triglycerides): 61%
4 | CCCCCC(=O)COS(=O)(=O)c1ccc(Cl)cc1 [Compound 66] |  | 88% | 2600 nM | 100% |  | 
5 | CCCC(C)C(=O)COS(=O)(=O)c1ccc(OCC)cc1 (centres unmarked) [Compound 133] | 91% | 111% |  |  | > 4500 mg/kg | 
6 | CCOc1ccc(S(=O)(=O)OCC(=O)CC(C)CC)cc1 (centres unmarked) [Compound 136] | 99% | 80% |  |  | > 4500 mg/kg | 
7 | CCCCC(C)C(=O)COS(=O)(=O)c1ccc(OCC)cc1 (centres unmarked) [Compound 139] | 87% | 84% |  |  | > 3000 mg/kg | 
8 | CCCCC(CCC)C(=O)COS(=O)(=O)c1ccc(OCC)cc1 (centres unmarked) [Compound 140] | 61% | 67% |  |  | > 3000 mg/kg | 
9 | CCCCC(CCCC)C(=O)COS(=O)(=O)c1ccc(OCC)cc1 [Compound 141] | 66% | 68% |  |  | > 3000 mg/kg | 
10 | CCCCCC(C)C(=O)COS(=O)(=O)c1ccc(OCC)cc1 (centres unmarked) [Compound 146] | 77% | 85% |  |  | > 4000 mg/kg | 
11 | CCC(C)C(=O)COS(=O)(=O)c1c(C)cc(C)cc1C (centres unmarked) [Compound 147] | 72% | 98% |  |  | > 3000 mg/kg | 
12 | CCC(CC)C(=O)COS(=O)(=O)c1c(C)cc(C)cc1C [Compound 148] | 80% | 96% |  |  | > 3000 mg/kg | 
13 | CCCC(C)C(=O)COS(=O)(=O)c1c(C)cc(C)cc1C (centres unmarked) [Compound 150] | 79% | 84% |  |  | > 3000 mg/kg | 
14 | CCCC(CCC)C(=O)COS(=O)(=O)c1c(C)cc(C)cc1C [Compound 152] | 69% | 78% |  |  | > 4000 mg/kg | 
15 | CCC(CC)CC(=O)COS(=O)(=O)c1c(C)cc(C)cc1C [Compound 154] | 70% | 76% |  |  | > 4000 mg/kg | 
16 | CCCCC(C)C(=O)COS(=O)(=O)c1c(C)cc(C)cc1C (centres unmarked) [Compound 155] | 71% | 67% |  |  | > 3000 mg/kg | 
17 | CCCCC(CCC)C(=O)COS(=O)(=O)c1c(C)cc(C)cc1C (centres unmarked) [Compound 156] | 62% | 58% |  |  | 4000 mg/kg | 
18 | CCCCC(CCCC)C(=O)COS(=O)(=O)c1c(C)cc(C)cc1C [Compound 157] | 66% | 67% |  |  | > 4000 mg/kg | 
19 | CCC(C)CCC(=O)COS(=O)(=O)c1c(C)cc(C)cc1C (centres unmarked) [Compound 159] | 51% | 49% |  |  | > 4000 mg/kg | 
20 | CCC(CC)CCC(=O)COS(=O)(=O)c1c(C)cc(C)cc1C [Compound 160] | 40% | 42% |  |  | > 4000 mg/kg | 

Row | Structure (SMILES) | inhibition in vivo at 100 mg/kg (cholesterol) | inhibition in vivo at 100 mg/kg (triglycerides) | IC50 (esterase) | inhibition at 100 µM (chymotripsin) | LD50 (Acute toxicity; po) | also measured
21 | Cc1cc(C)c(S(=O)(=O)OCC(=O)CCCC(C)C)c(C)c1 [Compound 161] | 56% | 51% |  |  | > 3000 mg/kg | 
22 | O=C(COS(=O)(=O)c1ccccc1)C1CCCCC1 [Compound 163] |  |  | 1600 nM | 13% |  | 
23 | O=C(CCC1CCCCC1)COS(=O)(=O)c1ccccc1 [Compound 164, 2-oxo-4-cyclohexyl-butylbenzenesulfonate] |  |  | 2200 nM | 100% |  | TG (percent triglycerides inhibition), Table 3 (triglycerides): 98%
24 | Cc1ccc(S(=O)(=O)OCC(=O)CC2CCCC2)cc1 [Compound 165] |  |  | 4400 nM | 90% |  | 
25 | Cc1ccc(S(=O)(=O)OCC(=O)CC2CCCCC2)cc1 [Compound 166] |  |  | 3500 nM | 98% |  | 
26 | Cc1ccc(S(=O)(=O)OCC(=O)CCC2CCCCC2)cc1 [Compound 167] |  |  | 3100 nM | 100% |  | TG (percent triglycerides inhibition), Table 3 (triglycerides): 53%
27 | O=C(COS(=O)(=O)c1ccc(O)cc1)CC1CCCCC1 [Compound 169] |  |  | 800 nM |  |  | 
28 | Cc1cc(C)c(S(=O)(=O)OCC(=O)C2CCCCC2)c(C)c1 [Compound 176] |  |  | 800 nM |  |  | 
29 | Cc1cc(C)c(S(=O)(=O)OCC(=O)CC2CCCCC2)c(C)c1 [Compound 177] |  |  | 200 nM | 10% |  | 
30 | O=C(COS(=O)(=O)c1ccc(Cl)cc1)C1CCCCC1 [Compound 179] |  |  | 1500 nM | 32% |  | 
31 | Cc1cc(C)c(S(=O)(=O)OCC(=O)C2CCOCC2)c(C)c1 [Compound 186] |  |  | 32000 nM |  |  | 
32 | Cc1ccc(S(=O)(=O)OCC(=O)CCc2ccccc2)cc1 [Compound 187] |  |  | 14000 nM | 100% |  | TG (percent triglycerides inhibition), Table 3 (triglycerides): 94%
33 | O=C(CCc1ccccc1)COS(=O)(=O)c1ccc(Cl)cc1 [Compound 188] |  |  | 25000 nM | 100% |  | TG (percent triglycerides inhibition), Table 3 (triglycerides): 95%
34 | O=C(CCCCl)COS(=O)(=O)c1ccccc1 [Compound 193, 2-oxo-5-chloro-n-pentyl-benzene sulfonate] |  |  | 820 nM | 46.8% |  | 
35 | COCCCC(=O)COS(=O)(=O)c1ccccc1 [Compound 194] |  |  | 2400 nM | 3.2% |  | 
36 | CC(=O)OCCCC(=O)COS(=O)(=O)c1ccccc1 [Compound 195] |  |  | 26000 nM | 22.2% |  | TG (percent triglycerides inhibition), Table 3 (triglycerides): 62%
37 | COC(=O)CCCC(=O)COS(=O)(=O)c1ccccc1 [Compound 196] |  |  | 6800 nM | 65.3% |  | TG (percent triglycerides inhibition), Table 3 (triglycerides): 77.9%
38 | O=C(CCCCCNC(=O)OCc1ccccc1)COS(=O)(=O)c1ccccc1 [Compound 197] |  |  | 30000 nM | 47% |  | 
39 | CCOc1ccc(S(=O)(=O)OCC(=O)CCCC(=O)OC)cc1 [Compound 201, 2-oxo-5-methoxycarbonyl-n-pentyl-p-ethoxybenzene sulfonate] |  |  | 170000 nM | 33% |  | 
40 | COCCCC(=O)COS(=O)(=O)c1c(C)cc(C)cc1C [Compound 205] |  |  | 1500 nM | 10% |  | 
